These results are taken from patent US11192849B2, “Compounds, compositions, and methods for modulating ferroptosis and treating excitotoxic disorders” (THE TRUSTEES OF COLUMBIA UNIVERSITY IN THE CITY OF NEW YORK, priority 2013, dated 2021).

Molecules are shown by their SMILES.

Experiment [1] has as its system HT-1080 cells. In words: Inhibition of erastin (10 μM)-induced death in HT-1080 cells (Alamar Blue). The experiment is classed as cell-based, human. Conditions: added up to 6 hours after erastin. The gist of the method:
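HT-1080 cells (1,000/well) were treated next day with 10 μM erastin plus a compound dilution series for 24 h. Alamar Blue (10% final) was then added for 6 h and fluorescence read at ex/em 530/590.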

The test system of experiment [2] is HT-1080 cells. In words: Cytosolic and lipid ROS production (H2DCFDA, C11-BODIPY flow cytometry) in HT-1080 cells. Conditions: erastin (10 μM). The experiment is classed as cell-based, human. Here is the method: The day before the experiment, 200,000 cells/well were seeded in 6-well dishes (Corning Inc., Corning, N.Y.). The day of the experiment, cells were treated with test compounds for the indicated times, then harvested by trypsinization, resuspended in 500 μL Hanks Balanced Salt Solution (HBSS, Gibco, Invitrogen Corp., Carlsbad, Calif.) containing either H2DCFDA (25 μM), C11-BODIPY(581/591) (2 μM) or MitoSOX (5 μM) (all from Molecular Probes, Invitrogen) and incubated for 10 minutes at 37° C. in a tissue culture incubator. Cells were then resuspended in 500 μL of fresh HBSS, strained through a […] cell strainer (BD Falcon, BD Biosciences, San Jose, Calif.), and analyzed using a flow cytometer (FACSCalibur or Accuri C6, BD Biosciences), which was equipped with 488-nm laser for excitation. Data was collected from the FL1 (H2DCFDA, C11-BODIPY) or FL2 channel (MitoSOX). A minimum of 10,000 cells were analyzed per condition.

The subject of experiment [3] is HT-1080, BJeLR and Calu-1 cells. In words: Modulatory profiling of cell death inhibitors against erastin. The experiment is classed as cell-based, human. The following applies: erastin 10 μM, 24 hours; 10-point, 4-fold dilution series. Here is the method: The day before the experiment, cells were seeded in black, 384-well clear bottom plates (Corning) at a density of 1,000 cells/well using a Beckman Biomek FX Workstation. All compounds (except 3-methyladenine and chloroquine, which were diluted in water) were diluted in DMSO at 250 times the final highest test concentration, and aliquoted across a 384-well plate (Greiner, Monroe, N.C.). A ten-point, 4-fold dilution series of each inhibitor in DMSO was made using a multichannel pipette. Replicates of this mother plate were stored at −20° C. […] Medium was removed from cells and replaced with 36 μL medium containing DMSO (0.1%) or erastin (10 μM final concentration). Using the Biomek FX, 4 μL were then transferred from each inhibitor daughter plate into the DMSO-containing or erastin-containing assay plates. For 3-methyladenine and chloroquine, inhibitors were prepared fresh in media at 10-fold the final concentration in the presence of DMSO or 10 μM erastin. These solutions were manually pipetted onto cells in 384-well format. Assay plates were incubated at 37° C. for 24 hours. Viability was assessed using Alamar Blue.
The modulatory effect (Me) for drug-drug interactions was computed as follows. First, plate-based background correction was performed using Alamar Blue values from empty (cell-free) wells included on each plate. Next, within each experiment, 100% viability is determined as the average Alamar Blue score for cells treated with modulator=DMSO and lethal=DMSO, and all Alamar Blue values were scaled from 0 to 1 with the DMSO×DMSO condition=1. The individual effects of each modulator and lethal (e.g. in the presence of DMSO) at all tested doses were then ascertained. […] Next, BExp was compared to the actual observed viability. […] By default, Me in DMSO-treated cells is equal to 0. […] Me values for each inhibitor-lethal drug combination were hierarchically clustered and plotted as a heatmap using the heatmaps.2 function of the gplots library in R.

The test system of the next experiment is Calu-1 cells. In words: Erastin-induced ferroptosis in Calu-1 cells, NOX pathway inhibitors. The experiment is classed as cell-based, human. Here is the method: Cell viability was typically assessed in 384-well format by Alamar Blue (Invitrogen) fluorescence (ex/em 530/590) measured on a Victor3 platereader (Perkin Elmer, Waltham, Mass.). In some experiments, Trypan Blue dye exclusion counting was performed using an automated cell counter (ViCell, Beckman-Coulter Inc., Brea, Calif.). Cell viability in test conditions is reported as a percentage relative to the negative control treatment.

Experiment [4] deals with mouse kidney proximal tubules. In words: Hydroxyquinoline + iron induced cell death in isolated mouse kidney proximal tubules (LDH release). It is filed as cell-based. The following applies: 10 μM hydroxyquinoline and ferrous ammonium sulfate, 60 min. Here is the method: Tubule preparation: 8-12 week old C57/BL6 female mice were euthanized with isoflurane. […] The cortices were then dissected and minced on an ice cold tile, then resuspended in additional Solution A for 8-10 min. of digestion at 37° C. followed by enrichment of proximal tubules using centrifugation on self-forming Percoll gradients as previously described for rabbit tubules.
Experimental procedures for isolated tubules: Tubules were suspended at 1.5-2.0 mg tubule protein/ml in a 95% air/5% CO2-gassed medium containing (in mM) 110 NaCl, 2.6 KCl, 25 NaHCO3, 2.4 KH2PO4, 1.25 CaCl2, 1.2 MgCl2, 1.2 MgSO4, 5 glucose, 4 sodium lactate, 0.3 alanine, 5 sodium butyrate, 2 glycine, and 1.0 mg/ml bovine gelatin (75 bloom) (Solution B). After precincubation for 15 min. at 37° C., then were then resuspended in fresh Solution B containing 2 mM heptanoic acid instead of sodium butyrate along with experimental compounds.
In addition, the efficacy of Fer-1, SRS11-92, and selected analogs was tested in a model of iron-induced cell death in freshly isolated mouse kidney proximal tubules that simulates major elements of rhabdomyolysis-induced acute kidney injury (FIG. 15C). Cell death in this model is known to involve oxidative lipid damage (Sogabe, et al., 1996, Park, et al., 2011); it was therefore believed that Fer-1 might be protective. 10 μM each of hydroxyquinoline and ferrous ammonium sulfate (HQ+Fe) were used to induce cell death, which was quantified by monitoring LDH release after 60 min. […] By implication, cell death in these models may involve, at least in part, the induction of lipid peroxidation and perhaps ferroptosis.
For orientation: LDH leaks from cells whose membrane has failed.

Experiment [5] deals with rat organotypic hippocampal slice culture (OHSC). In words: Glutamate excitotoxic injury in organotypic hippocampal slice cultures (PI uptake). The following applies: 5 mM L-glutamate 3 hours; Fer-1 2 μM, CPX 5 μM, MK-801 10 μM; 24 hours. The experiment is classed as cell-based. On the procedure:
OHSCs were cultured as previously described (Morrison et al., 2002) with approval from Columbia University's Institutional Animal Care and Use Committee (IACUC). Briefly, Sprague Dawley rat pups (P8-P10) were rapidly decapitated, and the hippocampus placed in ice-cold Gey's balanced salt solution (Sigma). 400 μm thick sections were cut using a Mcllwain tissue chopper and immediately plated on Millicell cell culture inserts (Millipore, Billerica, Mass.) in Neurobasal (Invitrogen) media supplemented with B27 (1×, Invitrogen), GlutaMAX (1 mM, Invitrogen), and D-glucose (4.5 mg/mL, Sigma) at 37° C. and 5% CO2. After 2 days in vitro (DIV), the media was changed to medium containing serum comprised of 50% DMEM (Sigma), 25% heat-inactivated horse serum (Sigma), 25% Hank's balanced salt solution (Sigma), GlutaMAX (1 mM, Invitrogen), and D-glucose (4.5 mg/mL, Sigma). Medium was changed every 2-3 days.
After 10-14 DIV, OBSCs were exposed to an excitotoxic injury consisting of a 3 hour exposure to 5 mM L-glutamate in SFM (Morrison et al., 2002). […] After the 3 hour exposure, the cultures were placed in fresh serum free media (SFM) containing 75% DMEM, 25% Hank's balanced salt solution, GlutaMAX (1 mM), D-glucose (4.5 mg/mL) until cell death was quantified at 24 hours. […]
Quantification of cell death has been described previously (Cater et al., 2007; Morrison et al., 2002). […] Percentage cell death was expressed as the number of pixels in the ROI above a threshold in the PI fluorescent image divided by the total number of pixels in the ROI.
OHSCs were treated with a lethal excitotoxic stimulus (5 mM L-glutamate, 3 hours) that mimics the consequences of stroke and neurodegenerative disease (Morrison et al., 2002; Sundstrom et al., 2005) (FIG. 5A). […] The effects of these compound treatments on propidium iodide (PI) uptake were analyzed, as an indicator of cell death, 24 hours following the end of glutamate treatment, in 3 defined regions of the OHSCs: the dentate gyrus (DG), the CA1 and the CA3 fields of the hippocampus.

Another experiment has as its target T1, system xc− (Homo sapiens, UniProt Q9UPY5).
T1 construct: endogenous in cells; host or cells: HT-1080 cells (ATCC)
T1 sequence (Q9UPY5 1-501): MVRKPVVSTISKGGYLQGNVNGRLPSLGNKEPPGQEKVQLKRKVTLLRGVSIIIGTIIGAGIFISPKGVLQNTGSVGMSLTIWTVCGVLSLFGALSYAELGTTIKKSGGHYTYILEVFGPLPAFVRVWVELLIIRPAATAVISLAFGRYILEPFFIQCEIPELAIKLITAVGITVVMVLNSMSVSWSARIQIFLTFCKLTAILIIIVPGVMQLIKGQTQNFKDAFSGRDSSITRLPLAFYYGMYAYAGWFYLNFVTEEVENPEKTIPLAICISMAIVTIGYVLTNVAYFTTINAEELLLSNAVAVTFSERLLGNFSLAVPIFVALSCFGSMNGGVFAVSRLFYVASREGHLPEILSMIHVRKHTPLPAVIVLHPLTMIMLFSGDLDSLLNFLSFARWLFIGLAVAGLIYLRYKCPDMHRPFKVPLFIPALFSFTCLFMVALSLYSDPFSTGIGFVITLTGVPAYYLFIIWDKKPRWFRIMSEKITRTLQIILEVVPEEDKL
T1 sequence (P08195 1-529 partner): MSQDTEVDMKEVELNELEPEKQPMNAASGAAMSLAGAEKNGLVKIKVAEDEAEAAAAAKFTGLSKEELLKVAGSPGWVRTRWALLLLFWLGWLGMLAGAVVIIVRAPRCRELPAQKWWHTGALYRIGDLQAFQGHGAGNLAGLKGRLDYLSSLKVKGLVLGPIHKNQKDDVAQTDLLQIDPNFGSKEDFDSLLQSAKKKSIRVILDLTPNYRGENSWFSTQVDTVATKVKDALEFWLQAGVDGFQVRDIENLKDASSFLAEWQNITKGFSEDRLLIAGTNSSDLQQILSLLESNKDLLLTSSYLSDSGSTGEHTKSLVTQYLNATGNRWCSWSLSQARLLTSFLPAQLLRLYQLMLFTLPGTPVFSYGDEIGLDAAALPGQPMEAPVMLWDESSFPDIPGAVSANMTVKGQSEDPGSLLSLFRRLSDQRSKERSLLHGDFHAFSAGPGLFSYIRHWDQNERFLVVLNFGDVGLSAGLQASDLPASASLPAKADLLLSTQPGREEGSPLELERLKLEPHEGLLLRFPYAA
In words: [14C]Cystine uptake assay in HT-1080 cells. It is filed as cell-based. Conditions: Erastin 10 μM, glutamate 50 mM, SAS 1 mM. Here is the method: 200,000 HT-1080 cells/well were seeded overnight in 6-well dishes (Corning). […] At this point, in each well the buffer was replaced with 600 μL uptake buffer containing compound and 0.12 μCi (80-110 mCi/mmol) of L-[3,3′-^14C]-cystine (Perkin Elmer) and incubated for 3 minutes at 37° C. Cells were then washed three times with ice-cold uptake buffer and lysed in 500 μL 0.1 M NaOH. To this lysate was added 15 mL of scintillation fluid and radioactive counts per minute were obtained using a scintillation counter. All measurements were performed in triplicate for each condition.

Take `N#CC(=C(N)Sc1ccccc1N)C(C#N)=C(N)Sc1ccccc1N` [Compound U0126, 1,4-diamino-2,3-dicyano-1,4-bis (2-aminophenylthio)butadiene]: the “protection when added after erastin” value in the experiment with HT-1080 cells [1] is “substantial protection from death”. Besides, the “effect of inhibitor on erastin-induced ROS accumulation” value in the experiment with HT-1080 cells [2] is “prevented the accumulation of H2DCFDA-sensitive ROS”. Besides, the “modulation of erastin-induced death” value in experiment [3] was “rescued from erastin-induced death”. As to `c1ccc2c(c1)[I+]c1ccccc1-2` [DPI, diphenylene iodonium], the “suppression of erastin-induced ferroptosis” value with Calu-1 cells is “strongly suppressed”. Turning to `CN(C)c1cccc(-c2c3c(=O)n(-c4ccccc4Cl)[nH]c3cc(=O)n2C)c1` [GKT137831, reference compound], the “HQ+Fe induced lethality (LDH release)” value in experiment [4] is recorded as “protective”. Also, the “suppression of erastin-induced ferroptosis” value in the experiment on Calu-1 cells is “strongly suppressed”.

In the case of `C[C@]12N[C@H](Cc3ccccc31)c1ccccc12` [MK-801], the “glutamate-induced cell death (PI uptake) in DG, CA1, CA3” value in experiment [5] is “attenuated significantly”. Regarding `O=C(O)c1cc(/N=N/c2ccc(S(=O)(=O)Nc3ccccn3)cc2)ccc1O` [SAS, sulfasalazine], the “Na+-independent uptake of [14C]cystine” value at system xc− was “abolished”. Consider `N[C@@H](CCC(=O)O)C(=O)O` [glutamate], for which the “Na+-independent uptake of [14C]cystine” value on system xc− is reported as “abolished”. `Cc1c(C)c2c(c(C)c1O)CCC(C)(C(=O)O)O2` (stereo not drawn) [trolox, 6-hydroxy-2,5,7,8-tetramethylchroman-2-carboxylic acid]: the “protection when added after erastin” value in the experiment with HT-1080 cells [1] is “substantial protection from death”. In addition, in the experiment on HT-1080 cells [2], the “effect of inhibitor on erastin-induced ROS accumulation” value is “prevented the accumulation of H2DCFDA-sensitive ROS”. For the same compound, the “modulation of erastin-induced death” value in experiment [3] was “rescued from erastin-induced death”.
